US10071967B2, “N-cycloalkyl-N-{[2-(1-substitutedcycloalkyl)phenyl]methylene}-(thio)carboxamide derivatives” (BAYER CROPSCIENCE AKTIENGESELLSCHAFT, priority 2013, dated 2018)

Assay: log P by HPLC on a reversed-phase column (C 18), EEC Directive 79/831 Annex V.A8
Format: physicochemical
Conditions: HPLC, reversed-phase column (C 18), 40° C.; 0.1% aqueous formic acid and acetonitrile, linear gradient 10% to 90% acetonitrile
Description: In table 1, the log P values were determined in accordance with EEC Directive 79/831 Annex V.A8 by HPLC (High Performance Liquid Chromatography) on a reversed-phase column (C 18), using the method described below: Temperature: 40° C.; Mobile phases: 0.1% aqueous formic acid and acetonitrile; linear gradient from 10% acetonitrile to 90% acetonitrile. Calibration was carried out using unbranched alkan-2-ones (comprising 3 to 16 carbon atoms) with known log P values (determination of the log P values by the retention times using linear interpolation between two successive alkanones). lambda-max-values were determined using UV-spectra from 200 nm to 400 nm and the peak values of the chromatographic signals.

Row | Molecule | logP
1 | Cn1cc(C(=O)N(Cc2cccc(Cl)c2C2(C)CC2)C2CC2)c(C(F)F)n1 [Example 1.001] | 3.89
2 | Cc1cc(C(=O)N(Cc2cccc(Cl)c2C2(C)CC2)C2CC2)c(C)o1 [Example 1.002] | 4.92
3 | Cn1cc(C(=O)N(Cc2cccc(F)c2C2(C)CC2)C2CC2)c(C(F)F)n1 [Example 1.003] | 3.46
4 | Cc1nn(C)cc1C(=O)N(Cc1cccc(F)c1C1(C)CC1)C1CC1 [Example 1.004] | 2.98
5 | Cc1nn(C)cc1C(=S)N(Cc1cccc(F)c1C1(C)CC1)C1CC1 [Example 1.005] | 3.64
6 | Cn1cc(C(=S)N(Cc2cccc(F)c2C2(C)CC2)C2CC2)c(C(F)F)n1 [Example 1.006] | 4.04
7 | Cc1cc(C(=O)N(Cc2ccc(Cl)cc2C2(C)CC2)C2CC2)c(C)o1 [Example 1.007] | 4.98
8 | Cc1cc(C(=O)N(Cc2ccc(Cl)cc2C2(C)CC2)C2CC2)c(C(F)F)o1 [Example 1.008] | 4.98
9 | Cn1nc(C(=O)N(Cc2ccc(Cl)cc2C2(C)CC2)C2CC2)c(C(F)F)n1 [Example 1.009] | 4.54
10 | Cn1cc(C(=O)N(Cc2ccc(Cl)cc2C2(C)CC2)C2CC2)c(C(F)F)n1 [Example 1.010] | 3.96
11 | Cn1nc(C(=S)N(Cc2ccc(Cl)cc2C2(C)CC2)C2CC2)c(C(F)F)n1 [Example 1.011] | 5.11
12 | Cc1cc(C(=S)N(Cc2ccc(Cl)cc2C2(C)CC2)C2CC2)c(C)o1 [Example 1.012] | 5.65
13 | Cn1cc(C(=O)N(Cc2ccc(F)cc2C2(C)CC2)C2CC2)c(C(F)F)n1 [Example 1.013] | 3.52
14 | Cc1nn(C)c(F)c1C(=O)N(Cc1ccc(F)cc1C1(C)CC1)C1CC1 [Example 1.014] | 3.46
15 | Cc1nn(C)c(F)c1C(=S)N(Cc1ccc(F)cc1C1(C)CC1)C1CC1 [Example 1.015] | 4.18
16 | Cc1ccc(CN(C(=O)c2c(C)nn(C)c2F)C2CC2)c(C2(C)CC2)c1 [Example 1.016] | 3.71
17 | COc1ccc(CN(C(=O)c2cn(C)nc2C(F)F)C2CC2)c(C2(C)CC2)c1 [Example 1.017] | 3.31
18 | COc1ccc(CN(C(=O)c2c(C)nn(C)c2F)C2CC2)c(C2(C)CC2)c1 [Example 1.018] | 3.23
19 | Cn1cc(C(=O)N(Cc2cc(F)c(F)cc2C2(C)CC2)C2CC2)c(C(F)F)n1 [Example 1.019] | 3.68
20 | COc1cc(CN(C(=O)c2cn(C)nc2C(F)F)C2CC2)c(C2(C)CC2)cc1OC [Example 1.020] | 2.98
21 | Cc1cc(C(=O)N(Cc2ccc(-c3ccccc3)cc2C2(C)CC2)C2CC2)c(C)o1 [Example 1.021] | 5.48
22 | Cn1nc(C(=O)N(Cc2ccc(-c3ccccc3)cc2C2(C)CC2)C2CC2)c(C(F)F)n1 [Example 1.022] | 5.00
23 | Cc1nn(C)c(Cl)c1C(=O)N(Cc1cc(Br)ccc1C1(C)CC1)C1CC1 [Example 1.023] | 4.24

Row | Molecule | logP
24 | Cn1cc(C(=O)N(Cc2cc(Br)ccc2C2(C)CC2)C2CC2)c(C(F)F)n1 [Example 1.024] | 3.94
25 | Cn1cc(C(F)F)c(C(=O)N(Cc2cc(Br)ccc2C2(C)CC2)C2CC2)n1 [Example 1.025] | 4.39
26 | Cc1nn(C)cc1C(=O)N(Cc1cc(Br)ccc1C1(C)CC1)C1CC1 [Example 1.026] | 3.44
27 | Cc1nn(C)c(F)c1C(=O)N(Cc1cc(Br)ccc1C1(C)CC1)C1CC1 [Example 1.027] | 3.99
28 | Cc1cc(C(=O)N(Cc2cc(Br)ccc2C2(C)CC2)C2CC2)c(C)o1 [Example 1.028] | 5.08
29 | Cn1cc(C(=O)N(Cc2cc(Cl)ccc2C2(C)CC2)C2CC2)c(C(F)F)n1 [Example 1.029] | 3.83
30 | Cc1c(C(=O)N(Cc2cc(Cl)ccc2C2(C)CC2)C2CC2)c(C(F)F)nn1C [Example 1.030] | 4.06
31 | Cn1cc(C(=S)N(Cc2cc(Cl)ccc2C2(C)CC2)C2CC2)c(C(F)F)n1 [Example 1.031] | 4.37
32 | Cn1cc(C(=O)N(Cc2cc(F)ccc2C2(C)CC2)C2CC2)c(C(F)F)n1 [Example 1.032] | 3.51
33 | Cc1ccc(C2(C)CC2)c(CN(C(=O)c2sccc2I)C2CC2)c1 [Example 1.034] | 5.14
34 | Cc1ccc(C2(C)CC2)c(CN(C(=O)c2c(C(F)F)nn(C)c2C(F)F)C2CC2)c1 [Example 1.035] | 4.36
35 | Cc1ccc(C2(C)CC2)c(CN(C(=O)c2c(C(F)F)nn(C)c2C)C2CC2)c1 [Example 1.036] | 3.99
36 | Cc1ccc(C2(C)CC2)c(CN(C(=O)c2cn(C)nc2C(F)(F)F)C2CC2)c1 [Example 1.037] | 4.16
37 | Cc1ccc(C2(C)CC2)c(CN(C(=O)c2c(C(F)(F)F)nn(C)c2F)C2CC2)c1 [Example 1.038] | 4.61
38 | Cc1ccc(C2(C)CC2)c(CN(C(=O)c2c(C(F)F)nn(C(C)(C)C)c2C(F)F)C2CC2)c1 [Example 1.039] | 5.35
39 | Cc1ccc(C2(C)CC2)c(CN(C(=O)c2c(C)nn(C)c2F)C2CC2)c1 [Example 1.040] | 3.73
40 | Cc1ccc(C2(C)CC2)c(CN(C(=O)c2c(C(F)(F)F)nn(C)c2Cl)C2CC2)c1 [Example 1.041] | 4.82
41 | Cc1ccc(C2(C)CC2)c(CN(C(=O)c2cc(C)oc2C(F)F)C2CC2)c1 [Example 1.042] | 4.62
42 | Cc1ccc(C2(C)CC2)c(CN(C(=O)c2ccoc2C(F)F)C2CC2)c1 [Example 1.043] | 4.35
43 | Cc1ccc(C2(C)CC2)c(CN(C(=O)c2nc(C)oc2C(F)F)C2CC2)c1 [Example 1.044] | 4.56
44 | Cc1ccc(C2(C)CC2)c(CN(C(=O)c2cc(C3CC3)oc2C)C2CC2)c1 [Example 1.045] | 5.22
45 | Cc1ccc(C2(C)CC2)c(CN(C(=O)c2oc(C)nc2C(F)F)C2CC2)c1 [Example 1.046] | 4.39
46 | Cc1ccc(C2(C)CC2)c(CN(C(=O)c2cc(C)oc2C)C2CC2)c1 [Example 1.047] | 4.85

Other lines, results leading:

Row | logP | Molecule
47 | 3.96 | Cc1ccc(C2(C)CC2)c(CN(C(=O)c2c(C)nn(C)c2Cl)C2CC2)c1 [Example 1.048]
48 | 5.00 | C=Cc1cc(C(=O)N(Cc2cc(C)ccc2C2(C)CC2)C2CC2)c(C)o1 [Example 1.049]
49 | 4.37 | Cc1ccc(C2(C)CC2)c(CN(C(=O)c2nn(C)nc2C(F)F)C2CC2)c1 [Example 1.050]
50 | 5.25 | CCc1cc(C(=O)N(Cc2cc(C)ccc2C2(C)CC2)C2CC2)c(C)o1 [Example 1.051]
51 | 4.39 | Cc1ccc(C2(C)CC2)c(CN(C(=S)c2cn(C)nc2C(F)F)C2CC2)c1 [Example 1.052]
52 | 4.92 | Cc1ccc(C2(C)CC2)c(CN(C(=S)c2oc(C)nc2C(F)F)C2CC2)c1 [Example 1.053]
53 | 5.72 | Cc1ccc(C2(C)CC2)c(CN(C(=S)c2sccc2I)C2CC2)c1 [Example 1.054]
54 | 5.08 | Cc1cc(C(=O)N(Cc2c(C3(C)CC3)ccc(C)c2F)C2CC2)c(C)o1 [Example 1.055]
55 | 3.06 | Cc1nn(C)c(F)c1C(=O)N(Cc1ccc2c(c1C1(C)CC1)OCO2)C1CC1 [Example 1.056]
56 | 3.39 | C#CC1(c2ccc(Cl)cc2CN(C(=O)c2cn(C)nc2C(F)F)C2CC2)CC1 [Example 1.063]
57 | 3.31 | C#CC1(c2ccc(C)cc2CN(C(=O)c2cn(C)nc2C(F)F)C2CC2)CC1 [Example 1.064]
58 | 3.21 | C#CC1(c2ccc(C)cc2CN(C(=O)c2c(C)nn(C)c2F)C2CC2)CC1 [Example 1.065]
59 | 4.54 | C#CC1(c2ccc(C)cc2CN(C(=S)c2c(C)nn(C)c2F)C2CC2)CC1 [Example 1.066]
60 | 3.79 | CCC1(c2ccccc2CN(C(=O)c2cn(C)nc2C(F)F)C2CC2)CC1 [Example 1.067]
61 | 4.37 | CCC1(c2ccccc2CN(C(=S)c2cn(C)nc2C(F)F)C2CC2)CC1 [Example 1.068]
62 | 4.25 | CCC1(c2cc(Cl)ccc2CN(C(=O)c2c(C)nn(C)c2F)C2CC2)CC1 [Example 1.069]
63 | 4.25 | CCC1(c2cc(Cl)ccc2CN(C(=O)c2cn(C)nc2C(F)F)C2CC2)CC1 [Example 1.070]
64 | 5.34 | CCC1(c2cc(Cl)ccc2CN(C(=O)c2cc(C)oc2C)C2CC2)CC1 [Example 1.071]
65 | 5.28 | CCC1(c2cc(Cl)ccc2CN(C(=O)c2cc(C)oc2C(F)F)C2CC2)CC1 [Example 1.072]
66 | 4.87 | CCC1(c2cc(Cl)ccc2CN(C(=O)c2nn(C)nc2C(F)F)C2CC2)CC1 [Example 1.073]
67 | 4.16 | CCC1(c2cc(C)ccc2CN(C(=O)c2cn(C)nc2C(F)F)C2CC2)CC1 [Example 1.074]
68 | 4.11 | CCC1(c2cc(C)ccc2CN(C(=O)c2c(C)nn(C)c2F)C2CC2)CC1 [Example 1.075]
69 | 4.67 | CCC1(c2cc(C)ccc2CN(C(=S)c2cn(C)nc2C(F)F)C2CC2)CC1 [Example 1.076]
70 | 4.36 | CCC1(c2cc(C(F)(F)F)ccc2CN(C(=O)c2cn(C)nc2C(F)F)C2CC2)CC1 [Example 1.077]
71 | 4.49 | CCC1(c2cc(C)c(F)cc2CN(C(=O)c2c(C)nn(C)c2Cl)C2CC2)CC1 [Example 1.078]
72 | 4.85 | CCC1(c2cc(C)c(F)cc2CN(C(=O)c2nn(C)nc2C(F)F)C2CC2)CC1 [Example 1.079]
73 | 5.25 | CCC1(c2cc(C)c(F)cc2CN(C(=O)c2cc(C)oc2C(F)F)C2CC2)CC1 [Example 1.080]

Same assay, conditions: Table 2, compounds of formula (I); HPLC C 18, 40° C., 0.1% aqueous formic acid and acetonitrile

Row | logP | Molecule
74 | 4.06 | Cn1cc(C(=O)N(Cc2cccc3c2C2(CCC3)CC2(Cl)Cl)C2CC2)c(C(F)F)n1 (racemic) [Ia.04]

Same assay, conditions: Table 4, compounds of formula (IV); HPLC C 18, 40° C., 0.1% aqueous formic acid and acetonitrile

Row | Molecule | logP
75 | 1-(2-formyl-4-methylphenyl)cyclopropanecarbonitrile [IV.16] | 2.08
76 | 3-fluoro-2-(1-methylcyclopropyl)benzaldehyde [IV.14] | 3.13
